Target: PDE1 (calmodulin-dependent 3,5-cyclic-nucleotide phosphodiesterase)
Assay: CaM-dependent PDE1 cAMP hydrolysis assay, Lineweaver-Burk and Dixon plots
Type: biochemical

C[C@@H]1CC[C@H]2[C@@H](C)C(=O)O[C@@H]3O[C@@]4(C)CC[C@@H]1[C@]32OO4 [artemisinin]
Ki: 10 µM

— article PMC3907678 (Tumour Biology, 2013)
